{"source": "patent US4734282A", "about": "“Rodenticidal compositions containing 1,4-naphthoquinone derivatives” (priority 1986, dated 1988)", "key": {"[1]": {"test_system": "vitamin K-dependent carboxylation", "experiment": "in vitro rat hepatic microsomal vitamin K-dependent carboxylation of endogenous substrate, inhibition by vitamin K antagonists", "type": "biochemical", "settings": "for Slope (% Inhibition/Concentration), mean ± S.D.: slope parameter s of logistic function; for IO (percent inhibition when C = 0), mean: third fit parameter of logistic function", "procedure": "(§1) The procedures for preparation of vitamin K-dependent carboxylase and assay of carboxylation were similar to those described in other laboratories (J. Biol. Chem. 251, 2770-2776; Biochim. Biophys. Acta 499, 181-193). Each animal was studied under both control and inhibitory conditions. The rats were rendered unconscious with nitrogen, the liver was quickly excised and minced in a total volume of 2.0 ml ice cold buffer I (0.25M sucrose, 0.025M imidazole, pH 7.20) per gram of liver. The liver was homogenized using 4 passes of a Teflon pestle (clearance 0.15-0.23 mm; Arthur H. Thomas Co., Philadelphia, Pa.) at 300 rpm. The post-mitochondrial supernatant and microsomal pellet were prepared by a published procedure (J. Biol. Chem. 251, 2770-2776). The microsomal pellet was resuspended in buffer II (0.25 M sucrose, 0.025M imidazole, 0.080M KCl, pH 7.20). This suspension supplied both the enzymes (vitamin K-dependent carboxylase and enzymes for vitamin K biotransformations) and endogenous substrates (precursors of vitamin K-dependent proteins) of interest. Microsomal suspension protein concentration was determined by the method of Bradford (Anal. Biochem. 72, 248-254) as described for Bio-Rad reagent and adjusted to approximately 15 mg/ml in buffer II.\n(§2) Control, blank, and experimental reaction mixtures were made for each experiment. Control and blank reaction mixtures were made up with vitamin K and without vitamin K, respectively. Experimental reaction mixtures contained both vitamin K and a vitamin K antagonist. The control reaction mixture contained 3.00 ml of microsomal suspension, 0.81 ml of buffer II, 1.20 ml of an ATP-generating system (final concentrations: 1 mM ATP, 10 mM phosphocreatine, 2.5 mM Mg[acetate]2 ·4H2 O, 20 μg/ml creatine phosphokinase [52 U/ml]), 0.60 ml of NADH (final concentration 2 mM), 0.30 ml of dithiothreitol (final concentration 7 mM) dissolved in buffer II, 0.060 ml of NaH^14 CO3 (1.0 μCi/μl; added 0.5 min prior to reaction initiation), and at the time of reaction initiation 0.030 ml of vitamin K1 (final concentration 20 μg/ml) diluted in 0.85% sodium chloride solution. This vitamin K concentration is associated with maximal in vitro incorporation of added H^14 CO3 into vitamin K-dependent substrate proteins (J. Biol. Chem. 251, 2770-2776). The blank reaction mixture consisted of the same components except that vitamin K was replaced by an equal volume of isotonic saline. The experimental reaction mixtures were made up in the same way as the control reaction mixtures with the exceptions that: (1) a volume of buffer II was replaced by a volume of buffer II containing an inhibitor of vitamin K-dependent carboxylation, and (2) all individual volumes were two-thirds of those in the control reaction mixtures. […] Chloro-K1 was formulated as an oil-in-water emulsion with Tween 80 (5% v/v final concentration), while chloro-K3 was formulated as a suspension in Tween 80 (5% v/v final concentration) (Molecular Pharmacology 10, 373-380).\n(§3) Reaction mixtures were incubated for 5 minutes at 100 excursions per minute in a reciprocating shaker water bath at 27° . After addition of vitamin K or saline, serial samples (0.45 ml each) were collected from each control and blank reaction tube at 2, 4, 6, 8, 10, 12, 14, 16, 30, 60, 90, and 120 minutes, and from each experimental reaction tube at 2, 4, 6, 8, 10, 12, 14, and 16 minutes. Each 0.45 ml sample was transferred to a tube containing 1 ml of ice-cold 10% TCA. The TCA-precipitated ^14 C-containing protein pellet was then prepared as previously described (J. Biol. Chem. 251, 2770-2776) and radioactivity was determined in an Intertechnique (Plaisir, France) liquid scintillation spectrometer using the external standard method of quench correction."}, "[2]": {"test_system": "prothrombin complex activity", "experiment": "in vivo prothrombin complex activity (PCA), its degradation and synthesis rate, from prothrombin time", "parameters": "species or system rat", "settings": "for PCA° (steady-state prothrombin complex activity before warfarin) / kd (first-order rate constant for degradation of PCA) / R°Syn (rate of synthesis of PCA): individual pretreated rat; for kd (first-order rate constant for degradation of PCA): after 2 mg/kg i.v. warfarin; for R°Syn (rate of synthesis of PCA): PCA° × kd; for reduction in R°Syn: vs normal rats"}, "[3]": {"test_system": "vitamin K-dependent carboxylation", "experiment": "in vitro vitamin K-dependent carboxylation in liver microsomes of pretreated rats", "type": "biochemical, rat", "settings": "for Normalized P∞ / V/KM (intrinsic formation rate of carboxylated vitamin K-dependent proteins): individual pretreated rat; for V/KM (intrinsic formation rate of carboxylated vitamin K-dependent proteins): liver microsomes about 22 hours after warfarin", "procedure": "as §1, §2\nas §3, with “correction. […]” for “correction.”"}, "[4]": {"test_system": "prothrombin complex activity", "settings": "2 mg/kg sodium warfarin i.v., approximately 19 hours prior to sacrifice; cited from earlier work"}, "rats": {"test_system": "rats", "settings": "cited from earlier work"}, "[5]": {"settings": "percent inhibition of vitamin K-dependent carboxylation vs concentration, logistic fit per animal, vitamin K1 20 μg/ml, 27°, read-out: IC50 (mean ± S.D.)"}, "[6]": {"settings": "range among individual rats, read-out: IC50 (range)"}}, "note": "“And” between values parts separate entries of the source, which are not always exact repeats. Equal entries are not always repeated. Where two headings read alike, the source gives them in different places.", "data": [{"compound": "O=C1C(Cl)=CC(=Nc2ccc(O)cc2)C=C1Cl", "note": "[2,6-DIP, 2,6-dichloroindophenol sodium]", "values": [{"measurement": "IC50", "setting": "[1]; [5]", "value": "116 ± 39.2", "unit": "µM"}, {"measurement": "Slope (% Inhibition/Concentration), range", "setting": "[1]; range among individual rats", "value": "0.940-1.36 % Inhibition/Concentration"}, {"measurement": "IC50", "setting": "[1]; [6]", "value": "78.1 to 160", "unit": "µM"}, {"measurement": "Slope (% Inhibition/Concentration), mean ± S.D.", "setting": "[1]", "value": "1.13 ± 0.174 % Inhibition/Concentration"}]}, {"compound": "S=C=Nc1cccc2ccccc12", "note": "[ANIT, α-naphthylisothiocyanate]", "values": [{"measurement": "PCA° (steady-state prothrombin complex activity before warfarin)", "setting": "[2]", "value": "56.1% and 56%"}, {"measurement": "kd (first-order rate constant for degradation of PCA)", "setting": "[2]", "value": 2.76, "unit": "day⁻¹"}, {"measurement": "R°Syn (rate of synthesis of PCA)", "setting": "[2]", "value": 155, "unit": "%/day"}, {"measurement": "reduction in R°Syn", "setting": "[2]", "value": "approximately 53%"}, {"measurement": "Normalized P∞", "setting": "[3]", "value": "15.59 dpm ^14 C incorporated/mg prot"}, {"measurement": "V/KM (intrinsic formation rate of carboxylated vitamin K-dependent proteins)", "setting": "[3]", "value": 0.1104, "unit": "min⁻¹"}, {"measurement": "increase in normalized P∞", "setting": "[3]; one treated rat vs normal", "value": "approximately 50%"}]}, {"compound": "ClC(Cl)(Cl)Cl", "note": "[CCl4, carbon tetrachloride]", "values": [{"measurement": "average turnover time of PCA", "setting": "[2]; group average", "value": "3.27 ± 1.34", "unit": "h"}, {"measurement": "biologic half-life of PCA", "setting": "[2]; group average", "value": "2.27±0.94", "unit": "hours"}, {"measurement": "kd, average of treated rats", "setting": "[2]; group average", "value": "8.49 ± 4.69", "unit": "day⁻¹"}, {"measurement": "kd (first-order rate constant for degradation of PCA)", "setting": "[2]; listed as OCl4", "value": "5.98 day⁻¹ and 13.90 day⁻¹ and 5.89 day⁻¹"}, {"measurement": "R°Syn (rate of synthesis of PCA)", "setting": "[2]; listed as OCl4", "value": "101 %/day and 137 %/day"}, {"measurement": "PCA° (steady-state prothrombin complex activity before warfarin)", "setting": "[2]; listed as OCl4", "value": "16.9% and 9.9% and 23.4%"}, {"measurement": "reduction in R°Syn", "setting": "[2]", "value": "approximately 62%"}, {"measurement": "Normalized P∞", "setting": "[3]", "value": "6.58 dpm ^14 C incorporated/mg prot and 9.86 dpm ^14 C incorporated/mg prot and 9.04 dpm ^14 C incorporated/mg prot"}, {"measurement": "V/KM (intrinsic formation rate of carboxylated vitamin K-dependent proteins)", "setting": "[3]", "value": "0.0798 min⁻¹ and 0.0944 min⁻¹ and 0.1257 min⁻¹"}, {"measurement": "reduction in V/KM", "setting": "[3]; two rats receiving 1.0 ml CCl4/kg", "value": "20-30%"}]}, {"compound": "C/C(=C\\CC1=C(Cl)C(=O)c2ccccc2C1=O)CCC[C@H](C)CCC[C@H](C)CCCC(C)C", "note": "[Chloro-K1, 2-Chloro-3-phytyl-1,4-naphthoquinone]", "values": [{"measurement": "IC50", "setting": "[1]; [5]", "value": "285 ± 89.3", "unit": "µM"}, {"measurement": "Slope (% Inhibition/Concentration), range", "setting": "[1]; range among individual rats", "value": "0.469-0.898 % Inhibition/Concentration"}, {"measurement": "IC50", "setting": "[1]; [6]", "value": "171 to 393", "unit": "µM"}, {"measurement": "Slope (% Inhibition/Concentration), mean ± S.D.", "setting": "[1]", "value": "0.634 ± 0.159 % Inhibition/Concentration"}]}, {"compound": "O=C1C=C(Cl)C(=O)c2ccccc21", "note": "[Chloro-K3, 2-chloro-1,4-naphthoquinone]", "values": [{"measurement": "times more potent than warfarin", "setting": "[1]; in vitro rat hepatic vitamin K-dependent carboxylation system", "value": 45, "unit": "times"}, {"measurement": "IC50", "setting": "[1]; [5]", "value": "146 ± 62.1", "unit": "µM"}, {"measurement": "Slope (% Inhibition/Concentration), range", "setting": "[1]; range among individual rats", "value": "0.738-1.55 % Inhibition/Concentration"}, {"measurement": "IC50", "setting": "[1]; [6]", "value": "100 to 236", "unit": "µM"}, {"measurement": "Slope (% Inhibition/Concentration), mean ± S.D.", "setting": "[1]", "value": "1.20 ± 0.340 % Inhibition/Concentration"}]}, {"compound": "O=C1c2ccccc2C(=O)C1c1ccccc1", "note": "[Phenindione, phenindione]", "values": [{"measurement": "IC50", "setting": "[1]; [5]", "value": "19 ± 11.2", "unit": "µM"}, {"measurement": "Slope (% Inhibition/Concentration), range", "setting": "[1]; range among individual rats", "value": "0.269-0.963 % Inhibition/Concentration"}, {"measurement": "IC50", "setting": "[1]; [6]", "value": "7.36 to 30.2", "unit": "µM"}, {"measurement": "Slope (% Inhibition/Concentration), mean ± S.D.", "setting": "[1]", "value": "0.475 ± 0.330 % Inhibition/Concentration"}]}, {"compound": "CCC1(c2ccccc2)C(=O)NC(=O)NC1=O", "note": "[Phenobarbital, Phenobarbital sodium]", "values": [{"measurement": "PCA° (steady-state prothrombin complex activity before warfarin)", "setting": "[2]", "value": "143.1% and 102.7%"}, {"measurement": "kd (first-order rate constant for degradation of PCA)", "setting": "[2]", "value": "3.72 day⁻¹ and 4.12 day⁻¹"}, {"measurement": "R°Syn (rate of synthesis of PCA)", "setting": "[2]", "value": "533 %/day and 423 %/day"}, {"measurement": "average increase in PCA° beyond normal rats", "setting": "[2]; two treated rats vs four normal rats", "value": 38, "unit": "%"}, {"measurement": "average increase in R°Syn beyond normal rats", "setting": "[2]; two treated rats vs normal rats", "value": 44, "unit": "%"}, {"measurement": "Normalized P∞", "setting": "[3]", "value": "4.92 dpm ^14 C incorporated/mg prot and 5.86 dpm ^14 C incorporated/mg prot"}, {"measurement": "V/KM (intrinsic formation rate of carboxylated vitamin K-dependent proteins)", "setting": "[3]", "value": "0.1174 min⁻¹ and 0.1586 min⁻¹"}]}, {"compound": "Oc1c(Cl)c(Cl)nc(Cl)c1Cl", "note": "[TCP, 2,3,5,6-Tetrachloropyridin-4-ol]", "values": [{"measurement": "difference between IC50 of most potent (TCP) and least potent (warfarin) compound", "setting": "[1]", "value": "approximately 5,000 fold"}, {"measurement": "IC50", "setting": "[1]; as printed in discussion text, read-out: average IC50", "value": 1.23, "unit": "µM"}, {"measurement": "IC50", "setting": "[1]; [5]", "value": "1.23 ± 0.24", "unit": "µM"}, {"measurement": "Slope (% Inhibition/Concentration), range", "setting": "[1]; range among individual rats", "value": "0.734-1.02 % Inhibition/Concentration"}, {"measurement": "IC50", "setting": "[1]; [6]", "value": "0.89 to 1.44", "unit": "µM"}, {"measurement": "Slope (% Inhibition/Concentration), mean ± S.D.", "setting": "[1]", "value": "0.884 ± 0.117 % Inhibition/Concentration"}]}, {"compound": "CC(=O)CC(c1ccccc1)c1c(O)c2ccccc2oc1=O", "note": "(stereo not shown) [Warfarin, warfarin]", "values": [{"measurement": "plasma prothrombin complex activity at the time of sacrifice", "setting": "[4]", "value": "~6 % of normal"}, {"measurement": "LD50 (may actually be as high as)", "setting": "rats; in rats", "value": "10 to 50", "unit": "mg/kg"}, {"measurement": "LD50 (assumed)", "setting": "rats; intravenously administered, assumed value", "value": 0.2, "unit": "mg/kg"}, {"measurement": "Slope (% Inhibition/Concentration), range", "setting": "[1]; range among individual rats", "value": "0.637-2.20 % Inhibition/Concentration"}, {"measurement": "IO (percent inhibition when C = 0), mean", "setting": "[1]", "value": "8.89 ± 3.77", "unit": "%"}, {"measurement": "IO (percent inhibition when C = 0), mean", "setting": "[1]; listed as warfarin", "value": 8.9, "unit": "%"}, {"measurement": "IO (percent inhibition when C = 0), range", "setting": "[1]; third fit parameter, range among rats", "value": "2.74-13.1%"}, {"measurement": "IC50", "setting": "[1]; warfarin, logistic fit with IO as third parameter, read-out: IC50 (mean ± S.D.)", "value": "6630 ± 2850", "unit": "µM"}]}]}
